Source: patent US12398118B2, “Rho-associated protein kinase inhibitor, pharmaceutical composition comprising same, and use thereof” (BEIJING TIDE PHARMACEUTICAL CO., LTD., priority 2018, dated 2025)

Key:
ROCK2 = ROCK2 (Homo sapiens, UniProt O75116); test: ROCK2 kinase IC50, HTRF KinEASE-STK S2 kit; assay type: biochemical; settings: 2 hours at room temperature
Description: (§1) The kinase IC50 was determined by a commercialized CISBIO kinase detection kit, HTRF KinEASE-STK S2 kit (62ST2PEC). ROCK2 (01-119) employed in the reaction was purchased from Carna Biosciences.
(§2) Before the assay, the following working solutions as needed were formulated with corresponding reagents according to the instruction of the kinase detection kit: 1×kinase buffer, 5×STK-S2 substrate working solution (1.5 μM) and 5×ATP working solution (1.5 μM), 5×ROCK2 kinase working solution, 4×Streptavidin-XL665 working solution, and 4×STK-Ab-Cryptate 2 detection solution. Then the assay was performed according to the following procedure.
(§3) A solution of a compound at a concentration of 10000 nM was prepared with the 1×kinase buffer containing 2.5% DMSO. Gradient dilution of the solution of the compound was performed with the kinase buffer containing DMSO, so as to obtain solutions of a test compound at 9 different concentrations. In addition to wells of test compounds, a positive well (containing all the reagents except the compound) and a negative well (containing all the reagents except the test compound and kinase) were set. Except for the control wells (positive and negative wells), a solution of a test compound (4 μL) was added to each of the reaction wells, and a solution of 2.5% DMSO was added to the control wells. Then the substrate (2 μM, i.e., 2 μL 5×STK-S2 substrate working solution) was added to each of the reaction wells. The 5×ROCK2 kinase working solution (2 μL, containing 1.4 ng ROCK2 kinase) was added to each of the reaction wells except for the negative well, the volume of which was made up with the 1×kinase buffer (2 μL). The 5×ATP working solution (2 μL) was added to each of the reaction wells, and the mixtures were incubated at room temperature for 2 hours. After the kinase reaction was complete, the 4×Streptavidin-XL665 working solution was added to each of the reaction wells, the solutions were mixed, followed by immediate addition of the 4×STK-Ab-Cryptate 2 detection solution (5 μL), and the mixtures were incubated at room temperature for 1 hour. The fluorescence signal was read on ENVISION (Perkinelmer) (excitation wavelength: 320 inn, and emission wavelength: 665 nm and 615 nm). The inhibitory rate in each well was calculated based on the fluorescence intensity value: ER (Emission Ratio)_(fluorescence intensity at 665 nm/fluorescence intensity at 615 nm); inhibitory rate=(ERpositive−ERtest compound)/(ERpositive−ERnegative)*100%. Curves were plotted and fitted to obtain the median inhibitory concentration (IC50) of each teat compound with the PRISM 5.0 software. According to a biological test method similar to the above, the IC50 values of the compounds on ROCK1 were also tested.

ROCK1 = ROCK1 (Homo sapiens (Human), UniProt Q13464); test: ROCK1 kinase IC50, biological test method similar to ROCK2 assay; assay type: biochemical
Chain of ROCK1 (Q13464 whole entry, species assumed): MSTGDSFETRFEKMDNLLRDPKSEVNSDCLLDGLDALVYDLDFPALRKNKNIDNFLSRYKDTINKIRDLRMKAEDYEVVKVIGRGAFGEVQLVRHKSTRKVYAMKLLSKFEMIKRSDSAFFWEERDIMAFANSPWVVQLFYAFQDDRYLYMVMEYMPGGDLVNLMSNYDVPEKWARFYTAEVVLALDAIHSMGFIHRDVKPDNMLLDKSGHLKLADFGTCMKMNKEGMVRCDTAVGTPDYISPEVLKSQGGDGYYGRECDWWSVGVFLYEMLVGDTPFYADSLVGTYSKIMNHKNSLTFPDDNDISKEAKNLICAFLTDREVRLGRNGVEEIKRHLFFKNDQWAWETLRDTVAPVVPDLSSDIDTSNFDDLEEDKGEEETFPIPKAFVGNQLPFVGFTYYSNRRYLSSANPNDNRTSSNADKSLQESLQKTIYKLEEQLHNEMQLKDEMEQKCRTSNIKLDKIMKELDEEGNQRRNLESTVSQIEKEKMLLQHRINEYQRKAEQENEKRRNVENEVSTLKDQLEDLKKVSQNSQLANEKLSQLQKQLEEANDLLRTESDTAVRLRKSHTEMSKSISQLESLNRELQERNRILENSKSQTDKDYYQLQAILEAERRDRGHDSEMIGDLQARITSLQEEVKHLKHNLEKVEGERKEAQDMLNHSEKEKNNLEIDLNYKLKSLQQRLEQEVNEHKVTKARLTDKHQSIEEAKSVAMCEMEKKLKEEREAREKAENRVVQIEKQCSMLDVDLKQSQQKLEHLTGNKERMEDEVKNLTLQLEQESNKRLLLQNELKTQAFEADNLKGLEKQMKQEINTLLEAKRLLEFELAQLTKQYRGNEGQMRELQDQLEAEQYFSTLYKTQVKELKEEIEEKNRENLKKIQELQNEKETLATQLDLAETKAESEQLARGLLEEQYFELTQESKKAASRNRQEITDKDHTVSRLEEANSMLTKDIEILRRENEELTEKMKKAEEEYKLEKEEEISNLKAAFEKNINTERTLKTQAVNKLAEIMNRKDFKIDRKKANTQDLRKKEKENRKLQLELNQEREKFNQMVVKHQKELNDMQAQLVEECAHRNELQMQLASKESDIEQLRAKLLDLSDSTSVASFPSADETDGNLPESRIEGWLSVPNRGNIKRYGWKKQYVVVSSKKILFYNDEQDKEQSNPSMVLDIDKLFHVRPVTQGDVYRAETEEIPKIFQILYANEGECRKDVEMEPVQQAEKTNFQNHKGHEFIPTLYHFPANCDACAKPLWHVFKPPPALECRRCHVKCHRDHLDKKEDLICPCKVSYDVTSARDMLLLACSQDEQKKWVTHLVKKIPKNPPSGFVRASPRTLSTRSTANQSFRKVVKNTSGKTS
Description: as §1, §2, §3

Chain of ROCK2 (O75116 whole entry, looked up): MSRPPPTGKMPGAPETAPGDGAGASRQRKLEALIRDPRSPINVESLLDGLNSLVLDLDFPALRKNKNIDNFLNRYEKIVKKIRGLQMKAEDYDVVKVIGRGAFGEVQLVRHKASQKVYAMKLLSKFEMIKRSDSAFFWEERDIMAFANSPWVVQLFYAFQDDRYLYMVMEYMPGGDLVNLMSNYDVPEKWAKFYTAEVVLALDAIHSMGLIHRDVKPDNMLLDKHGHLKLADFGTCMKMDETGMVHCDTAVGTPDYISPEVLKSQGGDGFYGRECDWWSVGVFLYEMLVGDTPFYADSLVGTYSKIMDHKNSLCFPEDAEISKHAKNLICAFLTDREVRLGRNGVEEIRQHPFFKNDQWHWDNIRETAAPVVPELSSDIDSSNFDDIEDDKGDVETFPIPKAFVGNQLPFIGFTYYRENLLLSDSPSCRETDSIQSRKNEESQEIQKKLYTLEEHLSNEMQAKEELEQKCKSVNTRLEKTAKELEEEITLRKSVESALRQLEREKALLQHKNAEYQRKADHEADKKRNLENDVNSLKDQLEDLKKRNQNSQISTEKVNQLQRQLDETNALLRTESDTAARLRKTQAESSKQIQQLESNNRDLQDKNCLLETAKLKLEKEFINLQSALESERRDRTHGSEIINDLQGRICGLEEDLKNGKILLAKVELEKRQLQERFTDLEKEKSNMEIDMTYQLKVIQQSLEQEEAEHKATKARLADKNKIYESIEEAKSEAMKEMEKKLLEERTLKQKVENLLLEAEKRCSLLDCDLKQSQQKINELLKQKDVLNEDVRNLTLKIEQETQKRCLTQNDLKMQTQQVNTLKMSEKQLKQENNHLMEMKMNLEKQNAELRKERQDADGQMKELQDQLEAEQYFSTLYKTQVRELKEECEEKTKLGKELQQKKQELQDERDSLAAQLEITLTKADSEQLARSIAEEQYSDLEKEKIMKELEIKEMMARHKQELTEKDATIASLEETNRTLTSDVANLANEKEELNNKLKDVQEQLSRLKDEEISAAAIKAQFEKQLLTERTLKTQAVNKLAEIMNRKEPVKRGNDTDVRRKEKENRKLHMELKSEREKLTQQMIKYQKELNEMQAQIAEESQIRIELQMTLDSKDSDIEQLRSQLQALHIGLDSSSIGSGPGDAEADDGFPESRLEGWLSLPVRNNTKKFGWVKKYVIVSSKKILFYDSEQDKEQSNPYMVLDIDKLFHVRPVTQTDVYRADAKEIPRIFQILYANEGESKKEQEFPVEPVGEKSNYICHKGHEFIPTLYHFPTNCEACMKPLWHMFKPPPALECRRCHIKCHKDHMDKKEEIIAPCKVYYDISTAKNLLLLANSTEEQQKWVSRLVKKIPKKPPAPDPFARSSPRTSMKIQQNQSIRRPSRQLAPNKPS

Compound | IC50 (ROCK2) | IC50 (ROCK1)
O=C(OC1CCC1)N1CCc2cc(-c3ncc(F)c(Nc4ccc5c(=O)[nH]ccc5c4)n3)ccc2C1 [C26, cyclobutyl 6-(5-fluoro-4-((1-oxo-1,2-dihydro-isoquinolin-6-yl)amino)pyrimidin-2-yl)-3,4-dihydro-isoquinolin-2(1H)-carboxylate] | 356 nM | > 10000 nM
CC(CC(=O)N1CCc2sc(-c3nccc(Nc4ccc5c(=O)[nH]ccc5c4)n3)cc2C1)C(F)(F)F (centres unmarked) [C49, 6-((2-(5-(4,4,4-trifluoro-3-methylbutanoyl)-4,5,6,7-tetrahydrothieno[3,2-c]pyridin-2-yl)pyrimidin-4-yl)amino)isoquinolin-1(2H)-one] | 7 nM | > 10000 nM
O=C(N1Cc2ccc(-c3ncc(F)c(Nc4ccc5c(=O)[nH]ccc5c4)n3)cc2C1)N1CC(F)(F)C1 [C79, 6-((2-(2-(3,3-difluoro-azetidine-1-carbonyl)isoindolin-5-yl)-5-fluoro-pyrimidin-4-yl)amino) isoquinolin-1(2H)-one] | 46 nM | > 10000 nM
CC(OC(=O)N1CCc2sc(-c3nccc(Nc4ccc5c(c4)CCNC5=O)n3)cc2C1)C(F)(F)F (centres unmarked) [C59, 1,1,1-trifluoropropan-2-yl 2-(4-((1-oxo-1,2,3,4-tetrahydroisoquinolin-6-yl)amino)pyrimidin-2-yl)-6,7-dihydrothieno[3,2-c]pyridine-5(4H)-carboxylate] | 33 nM | > 10000 nM
COCn1c(C(=O)N2CC(F)(F)C2)cc2ccc(-c3ncnc(Nc4ccc5c(=O)[nH]ccc5c4)n3)cc21 [C22, 6-((4(2-(3,3-difluoro-azetidine-1-carbonyl)-1-(methoxy-methyl)-1H-indol-6-yl)-1,3,5-triazin-2-yl)amino) isoquinolin-1(2H)-one] | 130 nM | > 10000 nM
O=C1NCCc2cc(Nc3nc(-c4ccc5c(c4)CN(C(=O)CCC(F)(F)F)C5)ncc3F)ccc21 [C64, 6-((5-fluoro-2-(2-(4,4,4-trifluoro-butanoyl)isoindolin-5-yl)pyrimidin-4-yl)amino)-3,4-dihydro-isoquinolin-1(2H)-one] | 109 nM | > 10000 nM
CC(C)(C)OC(=O)N1CCc2cc(-c3ncc(F)c(Nc4ccc5c(=O)[nH]ccc5c4)n3)ccc2C1 [C24, tert-butyl 6-(5-fluoro-4-((1-oxo-1,2-dihydro-isoquinolin-6-yl)amino)pyrimidin-2-yl)-3,4-dihydro-isoquinolin-2(1H)-carboxylate] | 222 nM | > 10000 nM
CC(C)(CC(=O)N1Cc2ccc(-c3ncc(F)c(Nc4ccc5c(c4)CCNC5=O)n3)cc2C1)C(F)(F)F [C82, 6-((5-fluoro-2-(2-(4,4,4-trifluoro-3,3-dimethyl-butanoyl)isoindolin-5-yl)pyrimidin-4-yl)amino)-3,4-dihydro-isoquinolin-1(2H)-one] | 129 nM | > 10000 nM
O=C(C1CC(F)(F)C1)N1Cc2ccc(-c3ncc(F)c(Nc4ccc5c(=O)[nH]cc(Cl)c5c4)n3)cc2C1 [C5, 4-chloro-6-((2-(2-(3,3-difluoroo-cyclobutane-1-carbonyl)isoindolin-5-yl)-5-fluoro-pyrimidin-4-yl)amino) isoquinolin-1(2H)-one] | 13 nM | > 10000 nM
O=C(C1CC(F)(F)C1)N1Cc2ccc(-c3ncc(F)c(Nc4ccc5c(=O)[nH]ncc5c4)n3)cc2C1 [C12, 6-((2-(2-(3,3-difluoroo-cyclobutane-1-carbonyl)isoindolin-5-yl)-5-fluoro-pyrimidin-4-yl)amino) phthalazin-1(2H)-one] | 17 nM | > 10000 nM
O=C1NCCc2cc(Nc3nc(-c4ccc5c(c4)CN(C(=O)OC4CC(F)(F)C4)C5)ncc3F)ccc21 [C14, 3,3-difluoro-cyclobutyl 5-(5-fluoro-4-((1-oxo-1,2,3,4-tetrahydro-isoquinolin-6-yl)amino)pyrimidin-2-yl) isoindoline-2-carboxylate] | 28 nM | > 10000 nM
CC(C)(C)CC(=O)N1Cc2ccc(-c3nccc(Nc4ccc5c(=O)[nH]ccc5c4)n3)cc2C1 [C56, 6-((2-(2-(3,3-dimethyl-butanoyl)isoindolin-5-yl)pryimidin-4-yl)amino) isoquinolin-1(2H)-one] | 24 nM | > 10000 nM
CC(OC(=O)N1Cc2ccc(-c3ncc(F)c(Nc4ccc5c(c4)CCNC5=O)n3)cc2C1)C(F)(F)F (centres unmarked) [C66, 1,1,1-trifluoro-propan-2-yl 5-(5-fluoro-4-((1-oxo-1,2,3,4-tetrahydro-isoquinolin-6-yl)amino)pyrimidin-2-yl) isoindolin-2-carboxylate] | 82 nM | > 10000 nM
CC(CC(=O)N1CCc2cc(-c3ncc(F)c(Nc4ccc5c(c4)CCNC5=O)n3)ccc21)C(F)(F)F (centres unmarked) [C74, 6-((5-fluoro-2-(1-(4,4,4-trifluoro-3-methyl-butanoyl)indolin-5-yl)pyrimidin-4-yl)amino)-3,4-dihydro-isoquinolin-1(2H)-one] | 54 nM | > 10000 nM
CC(C)(C)CC(=O)N1Cc2ccc(-c3ncc(F)c(Nc4ccc5c(=O)[nH]ccc5c4)n3)cc2C1 [C51, 6-((2-(2-(3,3-dimethyl-butanoyl)isoindolin-5-yl)-5-fluoro-pyrimidin-4-yl)amino) isoquinolin-1(2H)-one] | 53 nM | > 10000 nM
O=C1NCc2cc(Nc3nc(-c4ccc5c(c4)CN(C(=O)C4CC(F)(F)C4)C5)ncc3F)ccc21 [C3, 5-((2-(2-(3,3-difluoroo-cyclobutane-1-carbonyl)isoindolin-5-yl)-5-fluoro-pyrimidin-4-yl)amino) isoindolin-1-one] | 287 nM | > 10000 nM
CC(C)(C)OC(=O)N1Cc2ccc(-c3ncc(F)c(Nc4ccc5c(c4)CCNC5=O)n3)cc2C1 [C76, tert-butyl 5-(5-fluoro-4-((1-oxo-1,2,3,4-tetrahydro-isoquinolin-6-yl)amino)pyrimidin-2-yl) isoindoline-2-carboxylate] | 49 nM | > 10000 nM
CC(CC(=O)N1CCc2sc(-c3ncc(F)c(Nc4ccc5c(=O)[nH]ccc5c4)n3)cc2C1)C(F)(F)F (centres unmarked) [C47, 6-((5-fluoro-2-(5-(4,4,4-trifluoro-3-methylbutanoyl)-4,5,6,7-tetrahydrothieno[3,2-c]pyridin-2-yl)pyrimidin-4-yl)amino)isoquinolin-1(2H)-one] | 15 nM | > 10000 nM
O=C1NCc2cc(Nc3nc(-c4ccc5c(c4)CN(C(=O)OC4CC(F)(F)C4)C5)ncc3F)ccc21 [C30, 3,3-difluoro-cyclobutyl 5-(5-fluoro-4-((1-oxo-isoindolin-5-yl)amino)pyrimidin-2-yl) isoindoline-2-carboxylate] | 216 nM | > 10000 nM
C[C@@H](OC(=O)N1CCc2sc(-c3ncc(F)c(Nc4ccc5c(c4)CCNC5=O)n3)cc2C1)C(F)(F)F [C65, (R)-1,1,1-trifluoropropan-2-yl 2-(5-fluoro-4-((1-oxo-1,2,3,4-tetrahydroisoquinolin-6-yl)amino)pyrimidin-2-yl)-6,7-dihydrothieno[3,2-c]pyridine-5(4H)-carboxylate] | 80 nM | > 10000 nM
O=C(OC1CC(F)(F)C1)N1CCc2cc(-c3ncc(F)c(Nc4ccc5c(=O)[nH]ccc5c4)n3)ccc2C1 [C23, 3,3-difluoro-cyclobutyl 6-(5-fluoro-4-((1-oxo-1,2-dihydro-isoquinolin-6-yl)amino)pyrimidin-2-yl)-3,4-dihydro-isoquinolin-2(1H)-carboxylate] | 173 nM | > 10000 nM
O=C1NCCc2cc(Nc3nc(-c4ccc5c(c4)CN(C(=O)N4CC(F)(F)C4)C5)ncc3F)ccc21 [C81, 6-((2-(2-(3,3-difluoro-azetidine-1-carbonyl)isoindolin-5-yl)-5-fluoro-pyrimidin-4-yl)amino)-3,4-dihydro-isoquinolin-1(2H)-one] | 129 nM | > 10000 nM
CC(C)(C)OC(=O)N1CCc2cc(-c3ncc(F)c(Nc4ccc5c(=O)[nH]ccc5c4)n3)ccc21 [C17] | 421 nM | > 10000 nM
O=C(c1cc2ccc(-c3ncc(F)c(Nc4ccc5c(=O)[nH]ccc5c4)n3)cc2[nH]1)N1CC(F)(F)C1 [C9, 6-((2-(2-(3,3-difluoroazetidine-1-carbonyl)-1H-indol-6-yl)-5-fluoropyrimidin-4-yl)amino)isoquinolin-1(2H)-one] | 4 nM | > 10000 nM
CC(CC(=O)N1Cc2ccc(-c3nccc(Nc4ccc5c(=O)[nH]ccc5c4)n3)cc2C1)C(F)(F)F (centres unmarked) [C48, 6-((2-(2-(4,4,4-trifluoro-3-methyl-butanoyl)isoindolin-5-yl)pyrimidin-4-yl)amino) isoquinolin-1(2H)-one] | 13 nM | > 10000 nM
